system: Salmonidae; test: Binding affinity to Salmon testes DNA

Row | Ka | SMILES
1 | 2.3 10^4/M | O=C(NCCCN1CCOCC1)c1cccc2c1-c1ccccc1C2=O
2 | 7.8 10^4/M | CCN(CC)CCNC(=O)c1cccc2c1-c1ccccc1C2=O
3 | 3.1 10^4/M | CN(C)CCCNC(=O)c1cccc2c1-c1ccccc1C2=O
4 | 3.3 10^3/M | CN(C)CCNC(=O)c1cccc2c1-c1ccccc1C2=O
5 | 1.6 10^5/M | O=C(NCCN1CCOCC1)c1cccc2c1-c1ccccc1C2=O
6 | 8.4 10^3/M | O=C(NCCCO)c1cccc2c1-c1ccccc1C2=O

system: Salmonidae; test: Effect on Salmon testes DNA stabilization assessed as thermal denaturation at 100 uM; assay type: functional

Row | SMILES | ΔTm [°C]
7 | CC(O)CNC(=O)c1cccc2c1-c1ccccc1C2=O (stereo unspecified) | 2.1
8 | O=C(NCCO)c1cccc2c1-c1ccccc1C2=O | 1.9
9 | O=C(NCCCN1CCOCC1)c1cccc2c1-c1ccccc1C2=O | -0.8
10 | CCN(CC)CCNC(=O)c1cccc2c1-c1ccccc1C2=O | 2.1
11 | O=C(NCCOCCO)c1cccc2c1-c1ccccc1C2=O | 0.2
12 | CN(C)CCCNC(=O)c1cccc2c1-c1ccccc1C2=O | 2.1
13 | O=C(NCCCCO)c1cccc2c1-c1ccccc1C2=O | -0.8
14 | CN(C)CCNC(=O)c1cccc2c1-c1ccccc1C2=O | 0.2
15 | O=C(NCCN1CCOCC1)c1cccc2c1-c1ccccc1C2=O | 1.2
16 | O=C(NCCCO)c1cccc2c1-c1ccccc1C2=O | 3.1
